This is an account of results in patent US6399570B1, “Antimicrobial/endotoxin neutralizing polypeptide” (priority 1999, dated 2002).

Where a SMILES comes first, the peptide text is derived from it.

The test system of series [1] is E. coli 0111. The series can be described thus: Dose response of E. coli 0111 cells in the presence of LF polypeptides. The series is classed as cell-based. As to conditions: E. coli 0111, 5 hours, OD 600 nm. Here is the method:
To compare the activity of the above described 33-mer which contains both basic clusters, and the above described 27-mer, which contains only one basic cluster, E. coli cultures were grown for 5 hours in the presence of varying doses of the two polypeptides.
Dose response of E. coli 0111 cells in the presence of LF polypeptides. E. coli were cultured as described above, for 5 hr in the presence of varying concentrations of polypeptide 33-mer or the related 27-mer. Inhibition of culture growth was determined spectrophotometrically as described earlier.

Series [2] relates to E. coli 0111. The series can be described thus: Potentiation of Rifampicin by LF polypeptides. As to conditions: 5 μM polypeptide + 0.9 μg/ml rifampicin, 6 hr.
The subject of the next series is RAW264.7 cells. The series can be described thus: Cytotoxicity of LF-33 to RAW264.7 cells (MTT). The format is cell-based, murine. As to conditions: 10 μM, highest concentration used.
Another series concerns E. coli LPS. The series can be described thus: Limulus ELISA, ENC50 against E. coli LPS. The series is classed as biochemical, Escherichia coli O113:H10. As to conditions: endotoxin 200 EU/ml; mean +/− SD. Here is the method:
(§1) The peptide-mediated inhibition of endotoxin-induced Limulus amebocyte lysate (LAL) coagulation was measured with a sensitive LAL assay (Zhang et al., J. Clin. Microbiol. 32: 416-422 (1994)). Limulus ELISA is an endotoxin assay based on activation of the LAL coagulation by endotoxin and detection of the generated peptide-C immunoreactivity with an ELISA using a monoclonal antibody to the polypeptide. Endotoxin was defined to be neutralized when it lost its ability to activate the LAL enzymes. The 50% endotoxin-neutralizing concentration (ENC50) reflects the potency of an anti-endotoxin agent; a low ENC50 indicates high potency. Table 2 lists the determined ENC50 value of each anti-endotoxin agent against lipid A and four different types of LPS. The potency of each anti-endotoxin agent varied depending on the type of endotoxin. […] The only difference between the sequence of LF-33 and LF-27 is that LF-27 lacks the first six residues (GRRRRS) at the N-terminus of LF-33. Remarkably, this deletion led to dramatic loss of the endotoxin-neutralizing capacity of the polypeptide in this assay. Binding of serum proteins to endotoxin neutralizes the endotoxin activity in this assay by preventing endotoxin from activating LAL (Emancipator et al., Infect. Immun. 60: 596-601 (1992)).
(§2) LPS. […] LPS (purity >99%) from Neisseria meningitidis was prepared from the group B strain #6275 and its potency was 25 EU/ng. […] The potency of the above endotoxin was determined with the Limulus enzyme-linked immunosorbent assay (ELISA, 43) in comparison with US Pharmacopeia reference standard endotoxin EC-5.
(§3) Briefly, 25 μl endotoxin solution (200 EU/ml) was mixed with an equal volume of test materials in a series of two-fold dilution in 0.15 M NaCl in a sterile 96-well tissue culture plate (Nunc A/S, Roskilde, Denmark), and incubated at 37° C. for 1 h in a dry-air incubator. […] The endotoxin activity was then quantified with the use of Limulus ELISA (Zhang et al., J. Clin. Microbiol. 32: 416-422 (1994)). […] The high sensitivity of the assay allowed for very low levels of the endotoxin activity to be detected. […]

The test system of the next series is S. abortus LPS. The series can be described thus: Limulus ELISA, ENC50 against S. abortus LPS. The series is classed as biochemical, Salmonella abortus equi. As to conditions: endotoxin 200 EU/ml; mean +/− SD. Here is the method:
as §1, §2, §3
(In general: ELISA stands for enzyme-linked immunosorbent assay.)

The next series relates to Lipid A. The series can be described thus: Limulus ELISA, ENC50 against Lipid A. The series is classed as biochemical, E. coli K12. Particulars: endotoxin 200 EU/ml; mean +/− SD. The procedure:
as §1, §2, §3

A further series deals with P. aer. LPS. The series can be described thus: Limulus ELISA, ENC50 against P. aer. LPS. The series is classed as biochemical, Pseudomonas aeruginosa. As to conditions: endotoxin 200 EU/ml; mean +/− SD. Here is the method:
as §1, §2, §3

For another series, the system named is RAW 264.7 cells. The series can be described thus: Endotoxin-induced TNF-α secretion by RAW264.7 cells in culture medium containing 10% human serum. The series is classed as cell-based, murine. Particulars: polypeptide 2.5 μM, endotoxin 10 ng/ml. Here is the method: To test the suppression of endotoxin-induced TNF-α secretion under more physiological conditions, LF-33 or polymyxin B was added to human serum (final concentration 10%) before the addition of endotoxin.
Endotoxin induced TNF-α secretion by RAW 264.7 cells. The murine macrophage cell line RAW 264.7 was obtained from the American Type Culture Collection (ATCC, Rockville, Md.) and maintained as described previously (Jeremy, B., Immunol. Today. 16: 417-419 (1995)). The concentration of endotoxin in all buffers and media was controlled to below 0.1 EU/ml. The following protocol was essentially described before and used here with minor modifications (Kelly et al., Infect. Immun. 59: 4491-6 (1991)). Each well of a 96-well tissue culture plate was seeded with 150 μl RAW 264.7 cells at 10^6 cells per ml DMEM (Life Technologies, Gaithersburg, Md.) supplemented with 10% heat-treated fetal bovine serum (Life Technologies), 25 mM HEPES (N-2-hydroxyethylpiperazine-N′-2-ethanesulfonic acid; pH 7.3), penicillin (60 U/ml) and streptomycin (60 μg/ml). After overnight incubation at 37° C. in a 6% CO2 incubator, the medium was aspirated and cells washed with 3-changes of endotoxin-free Hank's balanced salt solution (HBSS, Life Technologies) supplemented with 25 mM HEPES (pH 7.3). Control endotoxin (10 ng/ml) and test materials were prepared in HBSS-HEPES. After incubation in a 37° C. water bath for 1 h, 0.2 ml of these solutions was added in triplicate to each well and incubated at 37° C. for 6 h. The supernatants were then collected and stored at −70° C. before the measurement of […] activity. Controls included HBSS-HEPES and test materials in the absence of endotoxin. TNF-α activity of the medium and test materials was below […]. The human serum used in some experiments was a pool from normal donors.
Determination of TNF activity. TNF-α activity in the culture supernatant was determined based on its cytotoxicity for the mouse fibrosarcoma cell line WEHI 164 cells (ATCC). […] The antibody at 1:100 dilution completely eliminated the cytotoxicity in the culture supernatant of the RAW 264.7 cell stimulated by endotoxin and in the mouse sera collected 1 h after intraperitoneal injection of endotoxin.
Briefly, the 96-well tissue culture plates were seeded with 100 μl WEHI164 cells (5×10^4 cells) in RPMI-1640 medium (Life Technologies) containing 10% heat-treated fetal bovine serum, 25 mM HEPES (pH 7.3), penicillin (60 U/ml), streptomycin (60 μg/ml), and actinomycin D (4 μg/ml). […] Cell viability was then determined by the addition of 10 μl MTT (Thiazolyl blue, Sigma) stock solution (5 mg/ml in saline) to each well, and the incubation was allowed to continue for 6 h. […] The plate was read at 570 nm with a reference of 630 nm in a microplate reader. […]

A further series relates to N. min. LPS. The series can be described thus: Limulus ELISA, ENC50 against N. min. LPS. The series is classed as biochemical, Neisseria meningitidis. Particulars: endotoxin 200 EU/ml; mean +/− SD. Here is the method: as §1, §2, §3
The subject of series [3] is E. coli 0111. The series can be described thus: Antimicrobial assay for LF polypeptides (CFU after 6 h). The series is classed as cell-based. Here is the method: The antimicrobial activity of the catheptic polypeptide was measured against a clinical isolate, E. coli 0111. […] The 6 kDa catheptic fragment of LF is therefore at least as potent as twelve other natural antimicrobial polypeptides (H. G. Boman, J. Marsh, and J. A. Goode, Eds., Antimicrobial Peptides, (John Wiley & Sons Ltd., New York, N.Y., 1994)), and can function as a bactericidal agent. […] At 100 μM polypeptide, the number of viable bacteria was more than 1,000-fold greater in the cultures treated with the pepsinolytic versus cathepsinolytic fragment (FIG. 1). The basis for this difference in potency may be related to the additional, internal, pepsin cleavages which occur between the two disulfide bridges in the 6 kDa domain (Mann et al., J. Biol. Chem. 269: 23661-7 (1994); Bellamy et al., Biochim. Biophys. Acta 1121: 130-6 (1992)).
Antimicrobial assay for LF polypeptides. Cultures of E. coli 0111 (American Type Culture Collection #43887) were grown at 37° C. in 1% bactopeptone (BP) (Difco) in Dulbecco's phosphate buffered saline (dPBS) (Mediatech) with aeration by shaking (225 rpm). overnight cultures were diluted 8,000-fold in 2×concentrated BP/dPBS and mixed with an equal volume of sterile endotoxin-free distilled water containing serial dilutions of the polypeptide to be tested. The final assay volume was […] in a 12 mm×75 mm polypropylene tube (Falcon) with an ultimate dilution of the overnight cultures of 1:16,000 to yield an original inoculum of ˜1-2×10^4 CFU/ml. The final assay medium was physiological in ionic strength, 1% bactopeptone in 1×Dulbecco's phosphate buffered saline. Cultures were grown for 6 h at 37° C. with aeration as above and then cell density determined by measuring CFU/ml for each assay culture tube. Serial dilutions of each assay tube were plated on Luria Broth bactoagar and incubated for 24 h at 37° C. prior to counting colonies. All assays were done in triplicate and the standard deviation calculated for each concentration of inhibitor. Culture density at the beginning and end of the 6 h growth period was also determined from triplicate cultures lacking any polypeptide inhibitors. Untreated cultures typically grew to 1-2×10^8 CFU/ml in 6 h under these assay conditions.

For series [4], the system named is E. coli 0111. Particulars: Bellamy et al. 1992; cited from earlier work.

In the case of `CSCC[C@H](NC(=O)[C@H](CC(N)=O)NC(=O)[C@H](CCCNC(=N)N)NC(=O)[C@H](CCC(N)=O)NC(=O)[C@H](Cc1c[nH]c2ccccc12)NC(=O)[C@H](CCC(N)=O)NC(=O)[C@H](Cc1ccccc1)NC(=O)[C@H](CS)NC(=O)[C@H](CCCCN)NC(=O)[C@@H](NC(=O)[C@H](C)NC(=O)[C@H](CCC(=O)O)NC(=O)[C@@H]1CCCN1C(=O)[C@H](CCC(N)=O)NC(=O)[C@H](CO)NC(=O)[C@@H](NC(=O)[C@H](C)NC(=O)[C@H](CS)NC(=O)[C@H](Cc1c[nH]c2ccccc12)NC(=O)[C@H](CCC(N)=O)NC(=O)[C@@H](NC(=O)[C@H](CO)NC(=O)[C@H](CCCNC(=N)N)NC(=O)[C@H](CCCNC(=N)N)NC(=O)[C@H](CCCNC(=N)N)NC(=O)[C@H](CCCNC(=N)N)NC(=O)CN)C(C)C)C(C)C)[C@@H](C)O)C(=O)N[C@@H](CCCNC(=N)N)C(=O)N[C@@H](CCCCN)C(=O)N[C@H](C(=O)N[C@@H](CCCNC(=N)N)C(=O)NCC(=O)N1CCC[C@H]1C(=O)O)C(C)C` [LF-33] (H-GRRRRSVQWCAVSQPEATKCFQWQRNMRKVRGP-OH), the “minimum inhibitory concentration (MIC)” value in the series with E. coli 0111 [1] lay within 2 to 5 µM. Also, the “% killed, average” value with M. smegmatis BH1 (50 μM LF-33, 16 hours, average of three experiments, listed as 33-mer) is “approximately 94%”. In addition, in the series with M. smegmatis BH1 (M. smegmatis, 16 hours), the “anti-mycobacterial MIC” value is reported as “not more than 10 μM”. Further, the “viable bacteria relative to the rifampicin treatment alone” value in the series with E. coli 0111 [2] is on record as “approximately 1%”. Besides, the “cytotoxicity to RAW264.7 cells” value with RAW264.7 cells is on record as “no cytotoxicity”.
As to Polymyxin B [reference compound], the half-inhibitory concentration (IC50) is 1.95 µM in the series on E. coli LPS; 18.2 µM with S. abortus LPS; 0.19 µM in the series on Lipid A; 3.91 µM in the series with P. aer. LPS; more than 100 µM with N. min. LPS. For the same compound, the “TNF-α secretion induced by P. aer. LPS” value in the series with RAW 264.7 cells (control 4,428) is listed as 4,206 +/− 956 pg/ml. Besides, in the series with RAW 264.7 cells (control 4,428), the “TNF-α secretion, P. aer. LPS mixing with serum first” value is listed as 4,206 +/− 956 pg/ml. Also, the “TNF-α secretion induced by S. abortus LPS” value with RAW 264.7 cells (control 5,726) is 4,090 +/− 806 pg/ml. Further, the “TNF-α secretion induced by N. min. LPS” value with RAW 264.7 cells (control 8,817) was 8,181 +/− 1,032 pg/ml.
Consider “pepsinolytic fragment: 6 kDa fragment released from LF by pepsin, amino acids 1-47, no amide bond between amino acid 11 and 12 [reference compound]”, for which the “number of viable bacteria, pepsinolytic versus cathepsinolytic fragment” value in the series on E. coli 0111 [3] (100 μM polypeptide) is “more than 1,000 fold”. In addition, the “minimum inhibitory concentration (MIC)” value in the series with E. coli 0111 [3] (E. coli 0111, physiological ionic strength, 6 h, CFU) lay in the range of 11 to 33 µM. Besides, in the series on E. coli 0111 [4], the MIC previously reported is 18 µM.

Broadly, the IC50 is the midpoint of a concentration-inhibition curve. A higher IC50 goes with a need for much substance.
